{"source": "ChEMBL document CHEMBL4680279", "about": "“Opportunities for Tapping into Three-Dimensional Chemical Space through a Quaternary Carbon” (J Med Chem, 2020)", "key": {"[1]": {"target": "Cholecystokinin(CCK) A/B (Homo sapiens) (UniProt P32239+P32238)", "sequence (P32238 whole entry, looked up)": "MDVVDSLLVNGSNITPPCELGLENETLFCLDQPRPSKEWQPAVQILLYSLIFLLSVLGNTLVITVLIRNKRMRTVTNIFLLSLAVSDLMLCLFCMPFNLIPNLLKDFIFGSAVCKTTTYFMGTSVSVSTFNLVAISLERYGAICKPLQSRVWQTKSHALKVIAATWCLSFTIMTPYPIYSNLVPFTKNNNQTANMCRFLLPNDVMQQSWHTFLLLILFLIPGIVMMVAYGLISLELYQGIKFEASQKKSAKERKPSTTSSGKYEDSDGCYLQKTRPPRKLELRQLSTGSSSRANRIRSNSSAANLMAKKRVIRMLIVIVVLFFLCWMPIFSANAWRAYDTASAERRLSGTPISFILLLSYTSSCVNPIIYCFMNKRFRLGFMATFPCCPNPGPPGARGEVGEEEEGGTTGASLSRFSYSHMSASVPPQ", "sequence (P32239 whole entry, looked up)": "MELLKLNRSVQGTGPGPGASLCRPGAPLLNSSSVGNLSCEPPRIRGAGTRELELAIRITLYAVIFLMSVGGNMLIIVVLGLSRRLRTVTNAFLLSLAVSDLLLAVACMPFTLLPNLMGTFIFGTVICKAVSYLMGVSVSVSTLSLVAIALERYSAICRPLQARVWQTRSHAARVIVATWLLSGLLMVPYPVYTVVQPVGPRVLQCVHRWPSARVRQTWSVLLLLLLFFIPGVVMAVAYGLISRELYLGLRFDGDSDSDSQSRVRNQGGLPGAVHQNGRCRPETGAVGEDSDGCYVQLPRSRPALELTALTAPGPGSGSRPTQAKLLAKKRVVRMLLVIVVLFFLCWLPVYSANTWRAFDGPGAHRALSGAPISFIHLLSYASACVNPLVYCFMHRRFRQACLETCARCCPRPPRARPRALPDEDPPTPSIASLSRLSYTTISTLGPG", "experiment": "Selectivity index, ratio of IC50 for human Cholecystokinin B receptor expressed in CHO-K1 cells to IC50 for human Cholecystokinin A receptor expressed in CHO-K1 cells", "assay_type": "cell-based"}, "Aspergillus fumigatus": {"system": "Aspergillus fumigatus", "experiment": "Antifungal activity against Aspergillus fumigatus incubated for 72 hrs", "assay_type": "functional"}, "Candida albicans": {"system": "Candida albicans", "experiment": "Antifungal activity against Candida albicans 124 incubated for 48 hrs", "assay_type": "functional"}, "[2]": {"experiment": "Displacement of N-[3H]ethyladenosin-5'-uronamide from adenosine receptor A2 in rat striatal membranes by liquid scintillation counting method", "assay_type": "cell membranes, Striatum, Membrane"}, "[3]": {"experiment": "Selectivity ratio of Ki for Displacement of N-[3H]ethyladenosin-5'-uronamide from adenosine receptor A2 in rat striatal membranes to Ki for Displacement of N6-[3H]cyclohexyladenosine from adenosine receptor A1 in guinea pig forebrain membranes", "assay_type": "cell membranes"}, "[4]": {"target": "Growth hormone secretagogue receptor type 1 (Rattus norvegicus, UniProt O08725)", "sequence (O08725 whole entry)": "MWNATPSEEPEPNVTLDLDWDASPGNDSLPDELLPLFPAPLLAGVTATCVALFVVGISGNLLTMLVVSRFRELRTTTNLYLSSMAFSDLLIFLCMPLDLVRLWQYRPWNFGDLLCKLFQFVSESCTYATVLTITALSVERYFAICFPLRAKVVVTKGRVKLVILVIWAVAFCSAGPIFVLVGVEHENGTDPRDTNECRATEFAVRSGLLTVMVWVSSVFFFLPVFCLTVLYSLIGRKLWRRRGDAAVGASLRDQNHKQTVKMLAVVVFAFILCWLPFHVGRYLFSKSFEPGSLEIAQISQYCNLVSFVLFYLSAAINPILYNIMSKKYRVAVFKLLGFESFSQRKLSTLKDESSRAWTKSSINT", "experiment": "Agonist activity at GHSR in Wistar rat pituitary gland cells assessed as induction of GH release by RIA", "assay_type": "tissue-based, Pituitary gland cell"}}, "data": [{"smiles": "CC(C)N(C(=O)CN1C(=O)C(C)(NC(=O)Nc2ccccc2)C(=O)N(c2ccccc2)c2ccccc21)c1ccccc1", "note": "(centres undefined)", "values": [{"measurement": "Ratio IC50", "setting": "[1]", "value": 0.2}]}, {"smiles": "CN(Cc1ccc(Cc2ccccc2)cc1)Cc1cccc2ccccc12", "values": [{"measurement": "MIC", "setting": "Aspergillus fumigatus", "value": "> 100", "unit": "µg/mL"}, {"measurement": "MIC", "setting": "Candida albicans", "value": "> 100", "unit": "µg/mL"}]}, {"smiles": "CCCn1c(=O)c2nc(C3C(C)(C)CCC3(C)C)[nH]c2n(CCC)c1=O", "values": [{"measurement": "Ki", "setting": "[2]", "value": "> 100000", "unit": "nM"}, {"measurement": "Ratio Ki", "setting": "[3]", "value": "> 4500"}]}, {"smiles": "CC(C)N(C(=O)CN1C(=O)C(CC(=O)Nc2ccccc2)C(=O)N(c2ccccc2)c2ccccc21)c1ccccc1", "note": "(centres undefined)", "values": [{"measurement": "Ratio IC50", "setting": "[1]", "value": 5}]}, {"smiles": "CN(Cc1ccc(C(C)(C)c2ccccc2)cc1)Cc1cccc2ccccc12", "values": [{"measurement": "MIC", "setting": "Aspergillus fumigatus", "value": 0.1, "unit": "µg/mL"}, {"measurement": "MIC", "setting": "Candida albicans", "value": 1.56, "unit": "µg/mL"}]}, {"smiles": "CN1N=C2CCN(C(=O)[C@@H](COCc3ccccc3)NC(=O)C(C)(C)N)C[C@@]2(Cc2ccccc2)C1=O", "note": "[CAPROMORELIN]", "values": [{"measurement": "EC50", "setting": "[4]", "value": 3, "unit": "nM"}]}, {"smiles": "O=C(NC(Cc1c[nH]c2ccccc12)C(=O)N1CCC2(CCc3ccccc32)CC1)NC1CN2CCC1CC2", "note": "(centres undefined) [SPIROPIPERIDINE]", "values": [{"measurement": "EC50", "setting": "[4]", "value": 50, "unit": "nM"}]}, {"smiles": "CCCn1c(=O)c2[nH]c(C3CCCC3)nc2n(CCC)c1=O", "note": "[1,3-DIPROPYL-8-CYCLOPENTYLXANTHINE [DPCPX]]", "values": [{"measurement": "Ki", "setting": "[2]", "value": 590, "unit": "nM"}]}, {"smiles": "CC(C)N(C(=O)CN1C(=O)C(C)(CC(=O)Nc2ccccc2)C(=O)N(c2ccccc2)c2ccccc21)c1ccccc1", "note": "(centres undefined)", "values": [{"measurement": "Ratio IC50", "setting": "[1]", "value": 110}]}, {"smiles": "CN(Cc1ccc(C2(c3ccccc3)CC2)cc1)Cc1cccc2ccccc12", "values": [{"measurement": "MIC", "setting": "Aspergillus fumigatus", "value": 1.56, "unit": "µg/mL"}, {"measurement": "MIC", "setting": "Candida albicans", "value": 3.13, "unit": "µg/mL"}]}]}
